Results from patent publication US20060211749A1, “Treatment with omega-3 fatty acids and PPAR agonist and/or antagonist and a combination product thereof” (priority 2004, published 2006).

Assay: Case of a subject with familial hypertriglyceridemia: blood lipid levels on fenofibrate alone, then on concomitant Omacor and fenofibrate
Assay type: in vivo, human
Parameters: HDL-Cholesterol level / Non-HDL-Cholesterol level: unit not given here
[1] = same subject, fenofibrate alone vs one month of concomitant therapy

Compound: CC(C)OC(=O)C(C)(C)Oc1ccc(C(=O)c2ccc(Cl)cc2)cc1 [Fenofibrate, 2-[4-(4-chlorobenzoyl)phenoxy]-2-methyl-propanoic acid, 1-methylethyl ester]
- TG level (person, fenofibrate (Antara 130 mg QD) about 2 weeks, then plus Omacor 4 grams/day QD for one month): 749 mg/dL
- HDL-Cholesterol level [1]: 28
- Non-HDL-Cholesterol level [1]: 252
- Total-Cholesterol level [1]: 280 mg/dL
